Measured values from publication PMC5515859, “Metabolism of F18, a Derivative of Calanolide A, in Human Liver Microsomes and Cytosol” (Frontiers in Pharmacology, 2017).
Like-named read-outs stand apart in the source and are kept apart here.

Experiments:
[1] = test system: CYP2C19; conditions: cited from earlier work
[2] = test system: CYP1A2; conditions: cited from earlier work
[3] = design: method as in Creagh et al., 2001; Eiznhamer et al., 2002; conditions: ref Creagh et al., 2001; Eiznhamer et al., 2002; cited from earlier work
[4] = test system: CYP2D6; conditions: cited from earlier work
[5] = test system: CYP3A4/5; conditions: cited from earlier work
[6] = test system: CYP3A4; experiment: Microsomal incubations of F18 with chemical inhibitors of CYPs or thermal inactivation of FMOs; conditions: human, human liver microsomes
Method: (§1) The contributions of CYPs and FMOs to the metabolism of F18 were investigated by chemical inhibition and thermal inactivation, respectively. […] Briefly, F18 (10 μM) was incubated with HLMs (0.5 mg protein/mL) and an NADPH-generating system in the absence and presence of CYP inhibitors at 37°C for 30 min, and the reaction was terminated with two volumes of ice-cold acetonitrile. […] In brief, HLMs (0.5 mg protein/mL) were preheated at 50°C for 5 min and then immersed in an ice-cold bath. After the addition of F18 (10 μM) and equilibration for 3 min at 37°C, the reaction was started by the addition of the NADPH-generating system. After a 30-min incubation, the reactions were terminated as described above. […] The formation of the major metabolites M1, M2-9, M3-1, M3-2, M5-2, M5-3, M5-4, and M5-5 was analyzed by LC-MS/MS.
(§2) The amounts of F18, M1, M2-9, M3-1, M3-2, M5-2, M5-3, M5-4, and M5-5 in the incubations were simultaneously quantified with the LC-MS/MS system. […] The sheath gas, auxiliary gas, spray voltage and tube lens parameters were the same as those for the metabolic profiling studies.

[7] = test system: CYPs and FMOs in HLMs; experiment: as above
Method: as §1, §2

[8] = test system: carbonyl reductases in HLM; experiment: Inhibition of carbonyl reduction of F18 (formation of M3-1 and M3-2) by chemical inhibitors in HLM; assay type: in vitro ADME, human; conditions: NADPH, F18 10 μM, 30 min
Method: F18 (10 μM) was incubated with HLMs (0.5 mg/mL) and the NADPH-generating system for 30 min or with HLcy and a cofactor (NADPH or NADH) for 10 min in the presence of chemical inhibitors under the above-described conditions. Control incubations using the vehicles but not the chemical inhibitors were also performed. The formation of M3-1 and M3-2 was quantified by LC-MS/MS.
as §2

[9] = test system: CYP2E1; conditions: cited from earlier work
[10] = high concentration: 18β-glycyrrhetinic acid 0.5 μM, 2-CEE 5 mM
[11] = low concentration: 18β-glycyrrhetinic acid 0.1 μM, 2-CEE 1 mM

## C=C(C)[C@@H]1CCC2=CC(=O)C[C@@H](C)[C@]2(C)C1 [nootkatone]
[1]
  Ki: 0.5 µM

## CCCc1cc(=O)oc2c3c(c4c(c12)OC(C)(C)C=C4)O[C@H](C)[C@@H](C)[C@@H]3O [calanolide A, Calanolide A]
[3]
  Tolerability in Phase I studies: well tolerated

## COc1ccc2c(c1)[C@]13CCCC[C@@H]1[C@H](C2)N(C)CC3 [dextromethorphan]
[4]
  Km: 0.44 to 8.5 µM

## CCOc1ccc(NC(C)=O)cc1 [Phenacetin]
[2]; read-out: substrate Km, CYP1A2, metabolite Acetaminophen, ref FDA Drug Development and Drug Interactions
  Km: 1.7 to 152 µM

## CC(=O)N1CCN(c2ccc(OCC3COC(Cn4ccnc4)(c4ccc(Cl)cc4Cl)O3)cc2)CC1 (stereo not drawn) [ketoconazole]
[5]
  Ki: 0.0037 to 0.18 µM
[6]
  inhibition at 30 min, 1 μM: > 80%
[6]; probe F18 (10 μM), formation of metabolite M1
  inhibition at 30 min, 1 μM: 20 to 30%

## Cc1ncc2n1-c1ccc(Cl)cc1C(c1ccccc1F)=NC2 [midazolam]
[5]
  Km: 1 to 14 µM
[7]
  Metabolism of probe substrate after thermal inactivation of HLMs: unchanged

## CC1(C)[C@@H](O)CC[C@]2(C)[C@H]3C(=O)C=C4[C@@H]5C[C@@](C)(C(=O)O)CC[C@]5(C)CC[C@@]4(C)[C@]3(C)CC[C@@H]12 [18β-Glycyrrhetinic, 18β-glycyrrhetinic acid]
[8]; [10]
  Percentage of inhibition of the formation of M3-1, H: 13.7%
  Percentage of inhibition of the formation of M3-2, H: 67.5%
[8]; [11]
  Percentage of inhibition of the formation of M3-1, L: 1.2%
  Percentage of inhibition of the formation of M3-2, L: 51.4%

## Cc1ncsc1CCCl [Clomethiazole]
[9]
  Ki: 12 µM

## C=CCSSCC=C [diallyldisulfide]
[9]
  Ki: 150 µM
